Our source for the melting point values is patent publication US20100292188A1, “Compounds Comprising A Cyclobutoxy Group” (UCB PHARMA S.A., priority 2008, published 2010).

In turn, `NC(=O)C1(C(=O)N2CCc3nc(-c4ccc(O[C@H]5C[C@H](N6CCCCC6)C5)cc4)sc3C2)CC1` [Compound 47, 1-{[2-{4-[(trans-3-piperidin-1-ylcyclobutyl)oxy]phenyl}-6,7-dihydro[1,3]thiazolo[5,4-c]pyridin-5(4H)-yl]carbonyl}cyclopropanecarboxamide] came in with a melting point of 199 to 200 °C.
In the case of `O=C(C1CCOCC1)N1CCc2nc(-c3ccc(O[C@H]4C[C@H](N5CCCCC5)C4)cc3)sc2C1` [Compound 45, 2-{4-[(trans-3-piperidin-1-ylcyclobutyl)oxy]phenyl}-5-(tetrahydro-2H-pyran-4-ylcarbonyl)-4,5,6,7-tetrahydro[1,3]thiazolo[5,4-c]pyridine], the melting point was in the range of 175 to 176 °C.
Then `COCC(=O)N1CCc2nc(-c3ccc(O[C@H]4C[C@H](N5CCCCC5)C4)cc3)sc2C1` [Compound 2, 5-(methoxyacetyl)-2-{4-[(trans-3-piperidin-1-ylcyclobutyl)oxy]phenyl}-4,5,6,7-tetrahydro[1,3]thiazolo[5,4-c]pyridine], with 128 °C; and `CC(=O)N1CCc2nc(-c3ccc(O[C@H]4C[C@H](N5CCC(F)(F)CC5)C4)cc3)sc2C1` [Compound 13, 5-acetyl-2-(4-{[trans-3-(4,4-difluoropiperidin-1-yl)cyclobutyl]oxy}phenyl)-4,5,6,7-tetrahydro[1,3]thiazolo[5,4-c]pyridine], with 175 °C.
The compound `NCC(=O)N1CCc2nc(-c3ccc(O[C@H]4C[C@H](N5CCCCC5)C4)cc3)sc2C1` [Compound 9, 2-oxo-2-[2-{4-[(trans-3-piperidin-1-ylcyclobutyl)oxy]phenyl}-6,7-dihydro[1,3]thiazolo[5,4-c]pyridin-5(4H)-yl]ethanamine] had a melting point of 199 °C.
`CCOC(=O)C(=O)N1CCc2nc(-c3ccc(O[C@H]4C[C@H](N5CCCCC5)C4)cc3)sc2C1` [Compound 49, ethyl oxo[2-{4-[(trans-3-piperidin-1-ylcyclobutyl)oxy]phenyl}-6,7-dihydro[1,3]thiazolo[5,4-c]pyridin-5(4H)-yl]acetate] showed a melting point of 145 to 146 °C.
For `CC(=O)N1CCc2nc(-c3ccc(O[C@H]4C[C@H](N5CCCCC5)C4)cc3)sc2C1` [Compound 4, 5-acetyl-2-{4-[(trans-3-piperidin-1-ylcyclobutyl)oxy]phenyl}-4,5,6,7-tetrahydro[1,3]thiazolo[5,4-c]pyridine], the melting point stood at 170.3 °C.
As for `O=C(C(O)CO)N1CCc2nc(-c3ccc(O[C@H]4C[C@H](N5CCCCC5)C4)cc3)sc2C1` (stereo partly drawn) [Compound 54, 3-oxo-3-[2-{4-[(trans-3-piperidin-1-ylcyclobutyl)oxy]phenyl}-6,7-dihydro[1,3]thiazolo[5,4-c]pyridin-5(4H)-yl]propane-1,2-diol], the melting point lay in the range of 167 to 168 °C.
`OC[C@H](O)CN1CCc2nc(-c3ccc(O[C@H]4C[C@H](N5CCCCC5)C4)cc3)sc2C1` [Compound 17, (2R)-3-[2-{4-[(trans-3-piperidin-1-ylcyclobutyl)oxy]phenyl}-6,7-dihydro[1,3]thiazolo[5,4-c]pyridin-5(4H)-yl]propane-1,2-diol] had a melting point of 172 °C.
Compound `CC(=O)NCCC(=O)N1CCc2nc(-c3ccc(O[C@H]4C[C@H](N5CCCCC5)C4)cc3)sc2C1` [Compound 42, N-{3-oxo-3-[2-{4-[(trans-3-piperidin-1-ylcyclobutyl)oxy]phenyl}-6,7-dihydro[1,3]thiazolo[5,4-c]pyridin-5(4H)-yl]propyl}acetamide] displayed a melting point of 144 °C.
For the compound `O=S(=O)(N1CCOCC1)N1CCc2nc(-c3ccc(O[C@H]4C[C@H](N5CCCCC5)C4)cc3)sc2C1` [Compound 7, 5-(morpholin-4-ylsulfonyl)-2-{4-[(trans-3-piperidin-1-ylcyclobutyl)oxy]phenyl}-4,5,6,7-tetrahydro[1,3]thiazolo[5,4-c]pyridine], the melting point came to 178 °C.
In the case of `O=C(O)COCC(=O)N1CCc2nc(-c3ccc(O[C@H]4C[C@H](N5CCCCC5)C4)cc3)sc2C1` [Compound 43, {2-oxo-2-[2-{4-[(trans-3-piperidin-1-ylcyclobutyl)oxy]phenyl}-6,7-dihydro[1,3]thiazolo[5,4-c]pyridin-5(4H)-yl]ethoxy}acetic acid] it was > 200 °C; in that of `NC(=O)CC(=O)N1CCc2nc(-c3ccc(O[C@H]4C[C@H](N5CCCCC5)C4)cc3)sc2C1` [Compound 25, 3-oxo-3-[2-{4-[(trans-3-piperidin-1-ylcyclobutyl)oxy]phenyl}-6,7-dihydro[1,3]thiazolo[5,4-c]pyridin-5(4H)-yl]propanamide], 176 °C; in that of `c1cc2nc(-c3ccc(O[C@H]4C[C@H](N5CCCCC5)C4)cc3)[nH]c2cn1` [Compound 69, 2-{4-[(trans-3-piperidin-1-ylcyclobutyl)oxy]phenyl}-3H-imidazo[4,5-c]pyridine], 165 to 172 °C.
In the case of `CC(=O)N1CCCCc2nc(-c3ccc(O[C@H]4C[C@H](N5CCCCC5)C4)cc3)sc21` [Compound 31, 4-acetyl-2-{4-[(trans-3-piperidin-1-ylcyclobutyl)oxy]phenyl}-5,6,7,8-tetrahydro-4H-[1,3]thiazolo[5,4-b]azepine] it was 49 °C.
`CC(=O)N1CCc2nc(-c3ccc(O[C@H]4C[C@H](N5CCN(C(C)C)CC5)C4)cc3)sc2C1` [Compound 12, 5-acetyl-2-(4-{[trans-3-(4-isopropylpiperazin-1-yl)cyclobutyl]oxy}phenyl)-4,5,6,7-tetrahydro[1,3]thiazolo[5,4-c]pyridine]: the melting point amounted to 109 °C.
Compound `NC(=O)NCC(=O)N1CCc2nc(-c3ccc(O[C@H]4C[C@H](N5CCCCC5)C4)cc3)sc2C1` [Compound 52, 1-{2-oxo-2-[2-{4-[(trans-3-piperidin-1-ylcyclobutyl)oxy]phenyl}-6,7-dihydro[1,3]thiazolo[5,4-c]pyridin-5(4H)-yl]ethyl}urea] had a melting point of 209 to 210 °C.
In the case of `CCNC(=O)N1CCc2nc(-c3ccc(O[C@H]4C[C@H](N5CCCCC5)C4)cc3)sc2C1` [Compound 21, N-ethyl-2-{4-[(trans-3-piperidin-1-ylcyclobutyl)oxy]phenyl}-6,7-dihydro[1,3]thiazolo[5,4-c]pyridine-5(4H)-carboxamide] it was 200 °C; in that of `OCCN1CCc2nc(-c3ccc(O[C@H]4C[C@H](N5CCCCC5)C4)cc3)sc2C1` [Compound 37, 2-[2-{4-[(trans-3-piperidin-1-ylcyclobutyl)oxy]phenyl}-6,7-dihydro[1,3]thiazolo[5,4-c]pyridin-5(4H)-yl]ethanol], 142 °C; in that of `CC(=O)N1CCCc2sc(-c3ccc(O[C@H]4C[C@H](N5CCCCC5)C4)cc3)nc21` [Compound 30, 4-acetyl-2-{4-[(trans-3-piperidin-1-ylcyclobutyl)oxy]phenyl}-4,5,6,7-tetrahydro[1,3]thiazolo[4,5-b]pyridine], 146 °C.
Then `NC(=O)CC(=O)N1CCc2sc(-c3ccc(O[C@H]4C[C@H](N5CCCCC5)C4)cc3)nc2C1` [Compound 65, 3-oxo-3-[2-{4-[(trans-3-piperidin-1-ylcyclobutyl)oxy]phenyl}-6,7-dihydro[1,3]thiazolo[4,5-c]pyridin-5(4H)-yl]propanamide], with 183.4 °C; and `Cc1n[nH]nc1C(=O)N1CCc2nc(-c3ccc(O[C@H]4C[C@H](N5CCCCC5)C4)cc3)sc2C1` [Compound 35, 5-[(5-methyl-2H-1,2,3-triazol-4-yl)carbonyl]-2-{4-[(trans-3-piperidin-1-ylcyclobutyl)oxy]phenyl}-4,5,6,7-tetrahydro[1,3]thiazolo[5,4-c]pyridine], with 150 to 154 °C; and `COC(=O)CN1CCc2nc(-c3ccc(O[C@H]4C[C@H](N5CCCCC5)C4)cc3)sc2C1` [Compound 26, methyl [2-{4-[(trans-3-piperidin-1-ylcyclobutyl)oxy]phenyl}-6,7-dihydro[1,3]thiazolo[5,4-c]pyridin-5(4H)-yl]acetate], with 221 °C.
In the case of `CC(=O)N1CCc2oc(-c3ccc(O[C@H]4C[C@H](N5CCCCC5)C4)cc3)nc2C1` [Compound 28, 5-acetyl-2-{4-[(trans-3-piperidin-1-ylcyclobutyl)oxy]phenyl}-4,5,6,7-tetrahydro[1,3]oxazolo[4,5-c]pyridine] it was 141.9 °C.
Take `OC[C@@H](O)CN1CCc2nc(-c3ccc(O[C@H]4C[C@H](N5CCCCC5)C4)cc3)sc2C1` [Compound 16, (2S)-3-[2-{4-[(trans-3-piperidin-1-ylcyclobutyl)oxy]phenyl}-6,7-dihydro[1,3]thiazolo[5,4-c]pyridin-5(4H)-yl]propane-1,2-diol]: the melting point came to 175 °C.
With `CC(=O)N1CCc2nc(-c3ccc(O[C@H]4C[C@H](N5CCCCC5)C4)cc3F)sc2C1` [Compound 36, 5-acetyl-2-{2-fluoro-4-[(trans-3-piperidin-1-ylcyclobutyl)oxy]phenyl}-4,5,6,7-tetrahydro[1,3]thiazolo[5,4-c]pyridine], the melting point was found to be 142.8 °C.
As to `CC(=O)N1CCc2nc(-c3ccc(O[C@H]4C[C@H](N5CCN(C6CCCC6)CC5)C4)cc3)sc2C1` [Compound 51, 5-acetyl-2-(4-{[trans-3-(4-cyclopentylpiperazin-1-yl)cyclobutyl]oxy}phenyl)-4,5,6,7-tetrahydro[1,3]thiazolo[5,4-c]pyridine], the melting point was 145.7 to 146.1 °C.
